Source: ChEMBL document CHEMBL1131846, “Selective A1-adenosine receptor antagonists identified using yeast Saccharomyces cerevisiae functional assays” (Bioorg Med Chem Lett, 1999)

How the values were obtained:
Adenosine receptor A1 [1] = target: T1, Adenosine receptor A1 (Homo sapiens, UniProt P30542); assay: Inhibitory activity against binding of [3H]DPCPX to human A1 receptor (hA1) using competition binding assay
T1 sequence (P30542 whole entry): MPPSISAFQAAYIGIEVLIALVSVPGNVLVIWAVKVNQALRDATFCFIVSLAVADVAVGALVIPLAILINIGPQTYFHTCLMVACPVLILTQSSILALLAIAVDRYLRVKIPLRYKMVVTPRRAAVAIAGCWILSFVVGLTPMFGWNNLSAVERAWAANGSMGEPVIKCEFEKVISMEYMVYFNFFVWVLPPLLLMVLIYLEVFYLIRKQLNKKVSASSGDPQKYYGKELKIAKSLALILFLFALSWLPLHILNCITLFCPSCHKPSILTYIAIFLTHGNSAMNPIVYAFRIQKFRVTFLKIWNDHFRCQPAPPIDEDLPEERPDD

Adenosine receptor A1 [2] = target: T1, Adenosine receptor A1; assay: Inhibitory activity against binding of the [3H]DPCPX to human A1 receptor (hA1) radioligands using competition binding assay
Adenosine receptor A1 [3] = target: T1, Adenosine receptor A1; assay: Inhibitory activity against membranes from yeast cells transformed with human A1 receptor (hA1); assay type: cell-based
Adenosine receptor A2a [4] = target: T2, Adenosine receptor A2a (Homo sapiens, UniProt P29274); assay: Inhibitory activity against binding of [3H]CGS-21680 to human A2a receptor (hA2a) using competition binding assay
Adenosine receptor A2a [5] = target: T2, Adenosine receptor A2a; assay: Inhibitory activity against membranes from HEK293 cells stably expressing the human A2a receptor (hA2a); assay type: cell-based
Adenosine receptor A2a [6] = target: T2, Adenosine receptor A2a; assay: Inhibitory activity against binding of the [3H]CGS-21680 to human A2a receptor (hA2a) radioligands using competition binding assay
Adenosine receptor A2a [7] = target: T2, Adenosine receptor A2a; assay: Inhibitory activity against binding of [3H]CGS-21680 to human A2a receptor (hA2a) using competition binding assay at a concentration of 10 uM
Adenosine receptor A2a [8] = target: T2, Adenosine receptor A2a; assay: Inhibitory activity against binding of the [3H]CGS-21680 to human A2a receptor (hA2a) radioligands using competition binding assay at a concentration of 10 uM
[9] = target: T3, Adenosine receptor A1 (Homo sapiens) (UniProt P30542); assay: Inhibitory activity against binding of [3H]DPCPX to human A1 receptor (hA1) using competition binding assay at a concentration of 10 uM
T3 sequence (whole entry): T1 sequence (P30542 whole entry)

[10] = target: T3, Adenosine receptor A1 (Homo sapiens); assay: Inhibitory activity against binding of the [3H]DPCPX to human A1 receptor (hA1) radioligands using competition binding assay at a concentration of 10 uM
Adenosine receptor A2a [11] = target: T2, Adenosine receptor A2a; assay: Inhibitory activity against membranes from HEK293 cells stably expressing the human A2a receptor (hA2a) at a concentration of 10 uM; assay type: cell-based

T2 sequence (P29274 whole entry): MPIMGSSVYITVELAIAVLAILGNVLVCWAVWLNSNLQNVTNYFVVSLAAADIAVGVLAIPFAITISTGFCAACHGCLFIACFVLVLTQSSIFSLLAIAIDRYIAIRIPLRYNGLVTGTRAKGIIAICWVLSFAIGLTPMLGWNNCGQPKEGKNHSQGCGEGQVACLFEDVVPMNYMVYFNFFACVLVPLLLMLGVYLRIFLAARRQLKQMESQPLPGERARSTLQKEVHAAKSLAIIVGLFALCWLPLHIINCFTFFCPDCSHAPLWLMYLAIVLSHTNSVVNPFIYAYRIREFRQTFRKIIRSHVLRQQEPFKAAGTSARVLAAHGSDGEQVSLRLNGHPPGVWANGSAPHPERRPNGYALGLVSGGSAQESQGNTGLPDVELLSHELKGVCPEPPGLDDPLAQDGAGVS

Row | SMILES | IC50 (Adenosine receptor A1 [1]) [nM] | Ki (Adenosine receptor A1 [2]) [nM] | IC50 (Adenosine receptor A1 [3]) [nM] | IC50 (Adenosine receptor A2a [4]) [nM] | IC50 (Adenosine receptor A2a [5]) [nM] | Ki (Adenosine receptor A2a [6]) [nM] | inhibition (Adenosine receptor A2a [7]) [%] | inhibition (Adenosine receptor A2a [8]) [%] | inhibition [9] [%] | inhibition [10] [%] | inhibition (Adenosine receptor A2a [11]) [%]
1 | Cc1[nH]c2nc(-c3ccccc3)nc(N[C@@H]3Cc4ccccc4[C@H]3O)c2c1C | 1810 | 896 | 1700 | – | 3220 | – | 59 | 59 | – | – | –
2 | CC(=O)NCCNc1nc(-c2ccccc2)nc2[nH]c(C)c(C)c12 | – | – | – | 48 | 48 | 23 | – | – | – | – | –
3 | Cc1[nH]c2nc(-c3ccccc3)nc(NCCN3CCNC3=O)c2c1C | 364 | 144 | 422 | 604 | 725 | 215 | – | – | – | – | –
4 | Cc1[nH]c2nc(-c3ccccc3)nc(NCc3ccncc3)c2c1C | 262 | 132 | 222 | 1710 | 2010 | 811 | – | – | – | – | –

Further molecules by falling IC50 (Adenosine receptor A1 [3]), results first:

Row | IC50 (Adenosine receptor A1 [1]) [nM] | Ki (Adenosine receptor A1 [2]) [nM] | IC50 (Adenosine receptor A1 [3]) [nM] | IC50 (Adenosine receptor A2a [4]) [nM] | IC50 (Adenosine receptor A2a [5]) [nM] | Ki (Adenosine receptor A2a [6]) [nM] | inhibition (Adenosine receptor A2a [7]) [%] | inhibition (Adenosine receptor A2a [8]) [%] | inhibition [9] [%] | inhibition [10] [%] | inhibition (Adenosine receptor A2a [11]) [%] | SMILES
5 | – | – | 5650 | – | – | – | 54 | 54 | 75 | 75 | 58 | Cc1[nH]c2nc(-c3ccccc3)nc(NCCCN3CCCC3=O)c2c1C
6 | 1910 | 951 | 1750 | 3400 | 2680 | 1140 | – | – | – | – | – | Cc1[nH]c2nc(-c3ccccc3)nc(N[C@H](CO)CC(C)C)c2c1C
7 | 1980 | 981 | 1610 | – | 3880 | – | 61 | 61 | – | – | – | Cc1nc2nc(-c3ccccc3)[nH]c(N[C@H](C)c3ccccc3)c-2c1C
8 | 1540 | 771 | 1260 | 2060 | 2110 | 962 | – | – | – | – | – | Cc1[nH]c2nc(-c3ccccc3)nc(N[C@@H]3CCCCNC3=O)c2c1C
